Source: patent US9656984B2, “PI3K/AKT/mTOR inhibitors and pharmaceutical uses thereof” (UNIVERSITE DE RENNES 1, priority 2013, dated 2017)

Columns and labels:
[1] = system: PI3K/AKT activity (AKT phosphorylation); assay: PI3K/AKT/mTOR pathway inhibitory activity: level of AKT phosphorylation in CEM cells over time; assay type: cell-based, human; conditions: 10 μM, FIGS. 7 and 8
Method: The CEM cell was incubated with 10 μM of each mentioned compound of formula (I) for the indicated times and then cells were lysed and 100 μg of protein was loaded per line and resolved by SDS-PAGE. The levels of AKT phosphorylation (hallmark of PI3K activation) and total AKT (loading control) were analyzed by Western blot and the amount of AKT phosphorylation relative to the total amount of protein AKT was quantified by densitometric analysis, the intensity of each band was scanned and the level of AKT phosphorylation was reported to the amount of whole AKT and the percentage of phosphorylated-AKT was depicted.
(§1) Immunoblots Excepted for immunoprecipitation experiments in which cells were lyzed with RIPA buffer, cells were lyzed for 30 min at 4° C. in Lysis buffer (25 mM HEPES pH 7.4, 1% v/v Triton X-100, 150 mM NaCl, 2 mM EGTA supplemented with a mix of protease inhibitors). Protein concentration was determined by the bicinchoninic acid method (Pierce, Rockford, Ill., USA) according to the manufacturer's protocol. Proteins were resolved by 8, 10 or 12% SDS-PAGE and transferred to a nitrocellulose membrane (GE Healthcare, Buckinghamshire, UK). The membrane was blocked 15 min with TBST (50 mM Tris, 160 mM NaCl, 0.05% v/v Tween 20, pH 7.4) containing 5% w/v dried skimmed milk (TBS™). Primary antibody was incubated overnight at 4° C. in TBS™. The membrane was intensively washed (TBST) and then the peroxydase-labeled anti-mouse IgG1 or IgG2a (CliniSciences, Nanterre, France) was added for 45 min. Proteins were visualized with the enhanced chemiluminescence substrate kit (ECL RevelBIOt®, Ozyme, Saint Quentin en Yvelines, France).

AKT phosphorylation = assay: In cellulo IC50 of AKT phosphorylation in CEM cells (Western blot densitometry); assay type: cell-based; conditions: Homo sapiens, CCRF-CEM, 2 hours incubation, AKT phosphorylation vs whole AKT, read-out: In vivo IC50
Method: CEM cells were incubated for 2 hours with the indicated concentrations of each mentioned compound of formula (I). Cells were then lysed and 100 μg of protein was loaded per line in an SDS-PAGE. Bands from AKT phosphorylation and whole AKT observed by Western blot were scanned and quantified by densitometric analysis. Based on these values, an in cellulo IC50 (half maximal inhibitory concentration) was measured for each compound of formula (I).
as §1

[2] = system: MDA-MB-453 (HER2 positive) breast tumor cell line; assay: Cell death by MTT assay, MDA-MB-453; assay type: cell-based, human; conditions: 24 hours, mean of two experiments
Method: (§2) The ER-positive breast tumor cell lines MCF-7 and T47-D and the HER2 positive breast tumor cell lines MDA-MB-453 and BT474 (also ER-positive) were incubated with the indicated concentration of each mentioned compound of formula (I) for 24 hours and then cell death was assessed using MTT assay.
(§3) For each cell line, the percentage of cell death (mean of four experiments for cell lines MCF-7 and T47-D, and two experiments for cell lines MDA-MB-453 and BT474) is given in view of the increasing concentration of each tested compound of the invention.
(§4) Cell viability was assessed using the 3-[4,5-dimethylthiazol-2-yl]-2,5-diphenyltetrazolium bromide (MTT) viability assay (1). In brief, cells (4×10^4 per well) were cultured for 20 h in flat-bottomed 96 well plates with various concentrations of the apoptosis inducer. Then 0.015 ml of MTT (5 mg/ml in PBS) was added to each well and incubated for 4 h at 37° C. Formazan salt precipitats were dissolved by adding 0.115 ml of isopropyl alcohol containing 1% formic acid (v/v), and the absorbance was measured at 570 nm.

[3] = system: MCF-7 (ER-positive) breast tumor cell line; assay: Cell death by MTT assay, MCF-7; assay type: cell-based, human; conditions: 24 hours, mean of four experiments
Method: as §2, §3, §4

[4] = system: BT474 (ER-positive/HER2-positive) breast tumor cell line; assay: Cell death by MTT assay, BT474; assay type: cell-based, human; conditions: 24 hours, mean of two experiments
Method: as §2, §3, §4

[5] = system: T47-D (ER-positive) breast tumor cell line; assay: Cell death by MTT assay, T47-D; assay type: cell-based, human; conditions: 24 hours, mean of four experiments
Method: as §2, §3, §4

SMILES | IC50 (AKT phosphorylation) [nM] | melting point [°C] | inhibitory activity on PI3K/AKT (level of AKT phosphorylation) [1] | percentage of cell death ([2]; MDA-MB-453, 0.390625 μM) [%] | percentage of cell death ([2]; MDA-MB-453, 0.78125 μM) [%] | percentage of cell death ([2]; MDA-MB-453, 1.5625 μM) [%] | percentage of cell death ([2]; MDA-MB-453, 3.125 μM) [%] | percentage of cell death ([2]; MDA-MB-453, 6.25 μM) [%] | percentage of cell death ([2]; MDA-MB-453, 12.5 μM) [%] | percentage of cell death ([2]; MDA-MB-453, 25 μM) [%] | percentage of cell death ([2]; MDA-MB-453, 50 μM) [%] | other results
ON=CC1=Cc2cc(Br)ccc2OC1c1ccc(Br)cc1 (stereo not shown) [Compound 59, 6-Bromo-2-(4-bromophenyl)-2H-chromene-3-carbaldehyde oxime] |  | 158 to 160 |  |  |  |  |  |  |  |  |  | 
O=CC1=Cc2cc(Br)ccc2OC1c1ccc(Br)cc1 (stereo not shown) [Compound 44, 6-Bromo-2-(4-bromophenyl)-2H-chromene-3-carbaldehyde] |  | 144 to 146 |  |  |  |  |  |  |  |  |  | 
O=C(O)C1=Cc2cc(Br)ccc2OC1c1ccc(Br)cc1 (stereo not shown) [Compound 53, 6-bromo-2-(4-bromophenyl)-2H-chromene-3-carboxylic acid] |  | 208 to 210 |  |  |  |  |  |  |  |  |  | 
COC(=O)C1=Cc2cc(Br)ccc2OC1c1ccc(Br)cc1 (stereo not shown) [Compound 55, Methyl-6-Bromo-2-(4-bromophenyl)-2H-chromene-3-carboxylate] |  | 118 to 120 |  |  |  |  |  |  |  |  |  | 
N#CC1=Cc2cc(Br)ccc2OC1c1ccc(Br)cc1 (stereo not shown) [Compound 61, 6-Bromo-2-(4-bromophenyl)-2H-chromene-3-carbonitrile] |  | 136 to 138 |  |  |  |  |  |  |  |  |  | 
O=C(O)C1=Cc2cc(Br)cc(Br)c2OC1c1ccc(Br)cc1 (stereo not shown) [Compound 54, 6,8-dibromo-2(4-bromophenyl)-2H-chromene-3-carboxylic acid] |  | 256 to 258 |  |  |  |  |  |  |  |  |  | 
N#CC1=Cc2cc(Br)cc(Br)c2OC1c1ccc(Br)cc1 (stereo not shown) [Compound 62, 6,8-Dibromo-2-(4-bromophenyl)-2H-chromene-3-carbonitrile] |  | 196 to 198 |  |  |  |  |  |  |  |  |  | 
O=[N+]([O-])C1Cc2cc(Br)ccc2OC1c1ccc(F)cc1 (stereo not shown) [Compound 7, 6-bromo-2-(4-fluorophenyl)-3-nitro-3,4-dihydro-2H-chromene] |  |  |  | 1.13 | 0 | 13.84 | 52.93 | 65.61 | 97.05 | 102.46 | 100.25 | percentage of cell death ([4]; BT474, 6.25 μM): 44.85%; percentage of cell death ([4]; BT474, 12.5 μM): 55.3%; percentage of cell death ([4]; BT474, 25 μM): 91.87%; percentage of cell death ([4]; BT474, 50 μM): 96.07%; percentage of cell death ([3]; MCF-7, 6.25 μM): 10.88%; percentage of cell death ([3]; MCF-7, 12.5 μM): 38.7%; percentage of cell death ([3]; MCF-7, 25 μM): 79.7%; percentage of cell death ([3]; MCF-7, 50 μM): 95.55%; percentage of cell death ([5]; 6.25 μM): 34.43%; percentage of cell death ([5]; 12.5 μM): 85.1%; percentage of cell death ([5]; 25 μM): 92.07%; percentage of cell death ([5]; 50 μM): 88.3%

Further lines, with some results ahead:

IC50 (AKT phosphorylation) [nM] | melting point [°C] | SMILES | inhibitory activity on PI3K/AKT (level of AKT phosphorylation) [1] | percentage of cell death ([2]; MDA-MB-453, 0.390625 μM) [%] | percentage of cell death ([2]; MDA-MB-453, 0.78125 μM) [%] | percentage of cell death ([2]; MDA-MB-453, 1.5625 μM) [%] | percentage of cell death ([2]; MDA-MB-453, 3.125 μM) [%] | percentage of cell death ([2]; MDA-MB-453, 6.25 μM) [%] | percentage of cell death ([2]; MDA-MB-453, 12.5 μM) [%] | percentage of cell death ([2]; MDA-MB-453, 25 μM) [%] | percentage of cell death ([2]; MDA-MB-453, 50 μM) [%] | other results
10000 |  | CCOc1cccc2c1OC(c1ccc(Cl)cc1)C([N+](=O)[O-])=C2 (stereo not shown) [Compound 14, 2-(4-chloro-phenyl)-8-ethoxy-3-nitro-2H-chromene] | very strong inhibitors |  |  |  |  |  |  |  |  | 
> 10000 |  | O=[N+]([O-])C1=Cc2cccc(Br)c2OC1c1ccc(Cl)cc1 (stereo not shown) [Compound 19, 8-bromo-2-(4-chloro-phenyl)-3-nitro-2H-chromene] | very strong inhibitors | 0 | 0 | 0 | 24.69 | 53.93 | 91.89 | 98.05 | 101.13 | percentage of cell death ([3]; MCF-7, 6.25 μM): 0%; percentage of cell death ([3]; MCF-7, 12.5 μM): 25.75%; percentage of cell death ([3]; MCF-7, 25 μM): 52.14%; percentage of cell death ([3]; MCF-7, 50 μM): 84.65%
8000 |  | CCOc1cccc2c1OC(c1ccc(Br)cc1)C([N+](=O)[O-])=C2 (stereo not shown) [Compound 13, 2-(4-bromo-phenyl)-8-ethoxy-3-nitro-2H-chromene] | very strong inhibitors |  |  |  |  |  |  |  |  | 
400 |  | O=[N+]([O-])C1=Cc2cc(Br)ccc2OC1c1ccc(Br)cc1 (stereo not shown) [Compound 9, 6-bromo-2-(4-bromo-phenyl)-3-nitro-2H-chromene] | very strong inhibitors | 1.52 | 7.56 | 4.67 | 53.8 | 71.22 | 87.47 | 97.49 | 98.67 | percentage of cell death ([4]; BT474, 6.25 μM): 25.95%; percentage of cell death ([4]; BT474, 12.5 μM): 71.4%; percentage of cell death ([4]; BT474, 25 μM): 88.01%; percentage of cell death ([4]; BT474, 50 μM): 93.62%; percentage of cell death ([3]; MCF-7, 6.25 μM): 0%; percentage of cell death ([3]; MCF-7, 12.5 μM): 32.14%; percentage of cell death ([3]; MCF-7, 25 μM): 52.18%; percentage of cell death ([3]; MCF-7, 50 μM): 80.16%; percentage of cell death ([5]; 6.25 μM): 20.53%; percentage of cell death ([5]; 12.5 μM): 92.97%; percentage of cell death ([5]; 25 μM): 91.2%; percentage of cell death ([5]; 50 μM): 93.62%
1500 |  | O=[N+]([O-])C1=Cc2cccc(Br)c2OC1c1ccc(Br)cc1 (stereo not shown) [Compound 18, 8-bromo-2-(4-bromo-phenyl)-3-nitro-2H-chromene] | very strong inhibitors | 3.17 | 3.17 | 0 | 0 | 45.963 | 81.73 | 93.72 | 100 | percentage of cell death ([5]; 6.25 μM): 0%; percentage of cell death ([5]; 12.5 μM): 0%; percentage of cell death ([5]; 25 μM): 23.71%; percentage of cell death ([5]; 50 μM): 78.28%
2000 |  | O=[N+]([O-])C1=Cc2cc(Br)ccc2OC1c1ccc(Cl)cc1 (stereo not shown) [Compound 10, 6-bromo-2-(4-chloro-phenyl)-3-nitro-2H-chromene] | very strong inhibitors | 6.6 | 7.8 | 5.06 | 70.42 | 76.17 | 93.07 | 98.46 | 99.07 | percentage of cell death ([4]; BT474, 6.25 μM): 0%; percentage of cell death ([4]; BT474, 12.5 μM): 40.42%; percentage of cell death ([4]; BT474, 25 μM): 69.52%; percentage of cell death ([4]; BT474, 50 μM): 93.84%; percentage of cell death ([3]; MCF-7, 6.25 μM): 0%; percentage of cell death ([3]; MCF-7, 12.5 μM): 24.06%; percentage of cell death ([3]; MCF-7, 25 μM): 49.08%; percentage of cell death ([3]; MCF-7, 50 μM): 81.85%; percentage of cell death ([5]; 6.25 μM): 4.62%; percentage of cell death ([5]; 12.5 μM): 87.84%; percentage of cell death ([5]; 25 μM): 91.71%; percentage of cell death ([5]; 50 μM): 92.93%
